Target: BRAF^V600E protein (Homo sapiens, UniProt P15056, V600E)
Assay: HiBiT cellular BRAF V600E degradation assay
Format: cell-based
Settings: 24 h incubation; for DC50: A375.10 cells (HiBiT tag knocked in at N-terminal of BRAF V600E), concentration at which 50% of total cellular BRAF V600E is degraded; for Emax: A375.10 cells, Emax = amount of residual protein remaining in the cell after compound treatment, read-out: HiBit 24 h Emax

Sequence of BRAF^V600E protein (P15056 whole entry V600E): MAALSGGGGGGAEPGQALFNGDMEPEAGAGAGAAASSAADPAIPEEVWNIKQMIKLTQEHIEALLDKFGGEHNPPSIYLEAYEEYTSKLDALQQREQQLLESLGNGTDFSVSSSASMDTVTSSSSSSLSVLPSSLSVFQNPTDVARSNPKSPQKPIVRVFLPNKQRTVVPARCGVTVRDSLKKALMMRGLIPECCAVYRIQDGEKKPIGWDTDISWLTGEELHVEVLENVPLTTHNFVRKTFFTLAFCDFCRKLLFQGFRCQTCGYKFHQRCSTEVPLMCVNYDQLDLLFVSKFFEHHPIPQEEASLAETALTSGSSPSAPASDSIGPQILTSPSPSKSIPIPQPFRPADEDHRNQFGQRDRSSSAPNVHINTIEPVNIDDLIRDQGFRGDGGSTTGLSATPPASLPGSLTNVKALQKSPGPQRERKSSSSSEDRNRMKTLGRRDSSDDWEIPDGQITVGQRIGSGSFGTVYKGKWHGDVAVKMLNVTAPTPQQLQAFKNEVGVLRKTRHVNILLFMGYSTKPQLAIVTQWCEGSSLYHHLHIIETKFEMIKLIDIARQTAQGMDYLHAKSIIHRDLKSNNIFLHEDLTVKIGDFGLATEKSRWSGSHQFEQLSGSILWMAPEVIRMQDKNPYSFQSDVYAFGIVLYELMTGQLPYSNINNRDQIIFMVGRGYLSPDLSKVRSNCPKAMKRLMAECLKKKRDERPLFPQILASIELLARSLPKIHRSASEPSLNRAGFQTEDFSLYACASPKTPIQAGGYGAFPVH

| DC50 [nM] | Emax [%] | SMILES |
| --- | --- | --- |
| 4.47 | 16.1 | O=C1CCC(Nc2ccc(C3CCN(CC(=O)N4CCN(c5ccc(-c6cnc7[nH]cc(C(=O)c8c(F)ccc(NS(=O)(=O)N9CCCC9)c8F)c7c6)cn5)CC4)CC3)cc2)C(=O)N1 (stereo not drawn) [Example A72, N-[3-[5-[6-[4-[2-[4-[4-[(2,6-Dioxopiperidin-3-yl)amino]phenyl]piperidin-1-yl]acetyl]piperazin-1-yl]pyridin-3-yl]-1H-pyrrolo[2,3-b]pyridine-3-carbonyl]-2,4-difluorophenyl]pyrrolidine-1-sulfonamide] |
| 6 | 19 | O=C1CCC(Nc2ccc(N3CCN(CC(=O)N4CCN(c5ccc(-c6cnc7[nH]cc(C(=O)c8c(F)ccc(NS(=O)(=O)N9CCCC9)c8F)c7c6)cn5)CC4)CC3)cc2)C(=O)N1 (stereo not drawn) [Example A73, N-[3-[5-[6-[4-[2-[4-[4-[(2,6-Dioxopiperidin-3-yl)amino]phenyl]piperazin-1-yl]acetyl]piperazin-1-yl]pyridin-3-yl]-1H-pyrrolo[2,3-b]pyridine-3-carbonyl]-2,4-difluorophenyl]pyrrolidine-1-sulfonamide] |
| 7 | 19 | O=C1CCC(Nc2ccc(N3CCN(CC(=O)N4CCN(c5ccc(-c6cnc7[nH]cc(C(=O)c8c(F)ccc(NS(=O)(=O)N9CC[C@@H](F)C9)c8F)c7c6)cc5)CC4)CC3)cc2)C(=O)N1 (stereo partly drawn) [Example A74, (3R)—N-[3-[5-[4-[4-[2-[4-[4-[(2,6-Dioxopiperidin-3-yl)amino]phenyl]piperazin-1-yl]acetyl]piperazin-1-yl]phenyl]-1H-pyrrolo[2,3-b]pyridine-3-carbonyl]-2,4-difluorophenyl]-3-fluoropyrrolidine-1-sulfonamide] |
| 4.46 | 16.2 | O=C1CCC(Nc2ccc(C3CCN(CC(=O)N4CCN(c5ccc(-c6cnc7[nH]cc(C(=O)c8c(F)ccc(NS(=O)(=O)N9CC[C@@H](F)C9)c8F)c7c6)cc5)CC4)CC3)cc2)C(=O)N1 (stereo partly drawn) [Example A75, (3R)—N-[3-[5-[4-[4-[2-[4-[4-[(2,6-Dioxopiperidin-3-yl)amino]phenyl]piperidin-1-yl]acetyl]piperazin-1-yl]phenyl]-1H-pyrrolo[2,3-b]pyridine-3-carbonyl]-2,4-difluorophenyl]-3-fluoropyrrolidine-1-sulfonamide] |
| 14.9 | 16.9 | CCN(C)S(=O)(=O)Nc1ccc(F)c(C(=O)c2c[nH]c3ncc(-c4ccc(N5CC6(CN(C(=O)CN7CCC(c8ccc(NC9CCC(=O)NC9=O)cc8)CC7)C6)C5)nc4)cc23)c1F (stereo not drawn) [Example A76, 5-[6-[2-[2-[4-[4-[(2,6-dioxopiperidin-3-yl)amino]phenyl]piperidin-1-yl]acetyl]-2,6-diazaspiro[3.3]heptan-6-yl]pyridin-3-yl]-3-[3-[[ethyl(methyl)sulfamoyl]amino]-2,6-difluorobenzoyl]-1H-pyrrolo[2,3-b]pyridine] |
| 47 | 31 | CCN(C)S(=O)(=O)Nc1ccc(F)c(C(=O)c2c[nH]c3ncc(-c4ccc(N5CC6(CN(C(=O)CN7CCN(c8ccc(NC9CCC(=O)NC9=O)cc8)CC7)C6)C5)nc4)cc23)c1F (stereo not drawn) [Example A77, 5-[6-[2-[2-[4-[4-[(2,6-Dioxopiperidin-3-yl)amino]phenyl]piperazin-1-yl]acetyl]-2,6-diazaspiro[3.3]heptan-6-yl]pyridin-3-yl]-3-[3-[[ethyl(methyl)sulfamoyl]amino]-2,6-difluorobenzoyl]-1H-pyrrolo[2,3-b]pyridine] |
| 8.93 | 15.4 | CCN(C)S(=O)(=O)Nc1ccc(F)c(C(=O)c2c[nH]c3ncc(-c4cnc(N5CCN(C(=O)[C@H]6C[C@@H](N7CCC(c8ccc(NC9CCC(=O)NC9=O)cc8)CC7)C6)CC5)nc4)cc23)c1F (stereo partly drawn) [Example A78, 5-[2-[4-[3-[4-[4-[(2,6-Dioxopiperidin-3-yl)amino]phenyl]piperidin-1-yl]cyclobutanecarbonyl]piperazin-1-yl]pyrimidin-5-yl]-3-[3-[[ethyl(methyl)sulfamoyl]amino]-2,6-difluorobenzoyl]-1H-pyrrolo[2,3-b]pyridine] |
| 60 | 22 | CCN(C)S(=O)(=O)Nc1ccc(F)c(C(=O)c2c[nH]c3ncc(-c4cnc(N5CCN(C(=O)CN6CCC(n7cc(NC8CCC(=O)NC8=O)cn7)CC6)CC5)nc4)cc23)c1F (stereo not drawn) [Example A79, 5-[2-[4-[2-[4-[4-[(2,6-Dioxopiperidin-3-yl)amino]pyrazol-1-yl]piperidin-1-yl]acetyl]piperazin-1-yl]pyrimidin-5-yl]-3-[3-[[ethyl(methyl)sulfamoyl]amino]-2,6-difluorobenzoyl]-1H-pyrrolo[2,3-b]pyridine] |
| 27.5 | 21.6 | CCN(C)S(=O)(=O)Nc1ccc(F)c(C(=O)c2c[nH]c3ncc(-c4ccc(N5CCN(C(=O)CN6CCC(n7cc(NC8CCC(=O)NC8=O)cn7)CC6)CC5)cc4)cc23)c1F (stereo not drawn) [Example A80, 5-[4-[4-[2-[4-[4-[(2,6-Dioxopiperidin-3-yl)amino]pyrazol-1-yl]piperidin-1-yl]acetyl]piperazin-1-yl]phenyl]-3-[3-[[ethyl(methyl)sulfamoyl]amino]-2,6-difluorobenzoyl]-1H-pyrrolo[2,3-b]pyridine] |
| 49 | 13 | CCN(C)S(=O)(=O)Nc1ccc(F)c(C(=O)c2c[nH]c3ncc(-c4ccc(N5CCN(C(=O)CCCN6CCC(c7ccc(C8CCC(=O)NC8=O)cc7)CC6)CC5)nc4)cc23)c1F (stereo not drawn) [Example A81, 5-[6-[4-[4-[4-[4-(2,6-Dioxopiperidin-3-yl)phenyl]piperidin-1-yl]butanoyl]piperazin-1-yl]pyridin-3-yl]-3-[3-[[ethyl(methyl)sulfamoyl]amino]-2,6-difluorobenzoyl]-1H-pyrrolo[2,3-b]pyridine] |
| 7.65 | 9.6 | CCN(C)S(=O)(=O)Nc1ccc(F)c(C(=O)c2c[nH]c3ncc(-c4ccc(N5CCN(C(=O)CN6CCC(c7ccc(C8CCC(=O)NC8=O)cc7)CC6)CC5)nc4)cc23)c1F (stereo not drawn) [Example A82, 5-[6-[4-[2-[4-[4-(2,6-Dioxopiperidin-3-yl)phenyl]piperidin-1-yl]acetyl]piperazin-1-yl]pyridin-3-yl]-3-[3-[[ethyl(methyl)sulfamoyl]amino]-2,6-difluorobenzoyl]-1H-pyrrolo[2,3-b]pyridine] |
| 6.97 | 8.89 | CCN(C)S(=O)(=O)Nc1ccc(F)c(C(=O)c2c[nH]c3ncc(C#Cc4ccc(C(=O)N5CCC(N6CCC(c7ccc(NC8CCC(=O)NC8=O)cc7)CC6)CC5)cc4)cc23)c1F (stereo not drawn) [Example A83, 5-[2-[4-[4-[4-[4-[(2,6-Dioxopiperidin-3-yl)amino]phenyl]piperidin-1-yl]piperidine-1-carbonyl]phenyl]ethynyl]-3-[3-[[ethyl(methyl)sulfamoyl]amino]-2,6-difluorobenzoyl]-1H-pyrrolo[2,3-b]pyridine] |
| 16 | 11 | O=C1CCC(c2ccc(C3CCN(CC(=O)N4CCN(c5ccc(-c6cnc7[nH]cc(C(=O)c8c(F)ccc(NS(=O)(=O)N9CCCC9)c8F)c7c6)cc5)CC4)CC3)cc2)C(=O)N1 (stereo not drawn) [Example A85, N-[3-[5-[4-[4-[2-[4-[4-(2,6-Dioxopiperidin-3-yl)phenyl]piperidin-1-yl]acetyl]piperazin-1-yl]phenyl]-1H-pyrrolo[2,3-b]pyridine-3-carbonyl]-2,4-difluorophenyl]pyrrolidine-1-sulfonamide] |
| 32 | 23 | CCN(C)S(=O)(=O)Nc1ccc(F)c(C(=O)c2c[nH]c3ncc(C#Cc4ccc(C(=O)NCCN5CCC(c6ccc(NC7CCC(=O)NC7=O)cc6)CC5)cc4)cc23)c1F (stereo not drawn) [Example A86, N-[2-[4-[4-[(2,6-Dioxopiperidin-3-yl)amino]phenyl]piperidin-1-yl]ethyl]-4-[2-[3-[3-[[ethyl(methyl)sulfamoyl]amino]-2,6-difluorobenzoyl]-1H-pyrrolo[2,3-b]pyridin-5-yl]ethynyl]benzamide] |
| 6 | 7 | CCN(C)S(=O)(=O)Nc1ccc(F)c(C(=O)c2c[nH]c3ncc(-c4cnc(N5CCN(C(=O)CN6CCC(c7ccc(NC89CC(C8)C(=O)NC9=O)cc7)CC6)CC5)nc4)cc23)c1F [Example A87, 5-[2-[4-[2-[4-[4-[(2,4-Dioxo-3-azabicyclo[3.1.1]heptan-1-yl)amino]phenyl]piperidin-1-yl]acetyl]piperazin-1-yl]pyrimidin-5-yl]-3-[3-[[ethyl(methyl)sulfamoyl]amino]2,6-difluorobenzoyl]-1H-pyrrolo[2,3-b]pyridine; formic acid] |
| 52 | 26 | O=C1CCN(c2cccc(C3CCN(CC(=O)N4CCN(c5ccc(-c6cnc7[nH]cc(C(=O)c8c(F)ccc(NS(=O)(=O)N9CCCC9)c8F)c7c6)cc5)CC4)CC3)c2)C(=O)N1 [Example A88, N-[3-[5-[4-[4-[2-[4-[3-(2,4-Dioxo-1,3-diazinan-1-yl)phenyl]piperidin-1-yl]acetyl]piperazin-1-yl]phenyl]-1H-pyrrolo[2,3-b]pyridine-3-carbonyl]-2,4-difluorophenyl]pyrrolidine-1-sulfonamide] |
| 73 | 12 | O=C1CCC(Nc2ccc(C3CCN(CCCC(=O)N4CC(c5ccc(-c6cnc7[nH]cc(C(=O)c8c(F)ccc(NS(=O)(=O)N9CCCC9)c8F)c7c6)cc5)C4)CC3)cc2)C(=O)N1 (stereo not drawn) [Example A89, N-[3-[5-[4-[1-[4-[4-[4-[(2,6-dioxopiperidin-3-yl)amino]phenyl]piperidin-1-yl]butanoyl]azetidin-3-yl]phenyl]-1H-pyrrolo[2,3-b]pyridine-3-carbonyl]-2,4-difluorophenyl]pyrrolidine-1-sulfonamide] |
| 31 | 20 | CCN(C)S(=O)(=O)Nc1ccc(F)c(C(=O)c2c[nH]c3ncc(-c4cnc(N5CCC(N(C)CC(=O)N6CCC(c7ccc(NC8CCC(=O)NC8=O)cn7)CC6)CC5)nc4)cc23)c1F (stereo not drawn) [Example A90, 5-[2-[4-[[2-[4-[5-[(2,6-Dioxopiperidin-3-yl)amino]pyridin-2-yl]piperidin-1-yl]-2-oxoethyl]-methylamino]piperidin-1-yl]pyrimidin-5-yl]-3-[3-[[ethyl(methyl)sulfamoyl]amino]-2,6-difluorobenzoyl]-1H-pyrrolo[2,3-b]pyridine;formic acid] |

From patent publication US12559492B2, “BRAF degraders” (C4 Therapeutics, Inc., priority 2020, dated 2026)
